Laboratory results published in PubChem BioAssay AID248 (DTP/NCI, 2004).
Where “and” joins values, the source holds several entries; their conditions need not be identical. Equal values may be shown once. Toxic doses and inconclusive results are not listed. Rule as the data show it: active = T/C of 150% or more; inactive = T/C below 125%.

Test system: L1210 leukemia ip in BDF1 mice, survival T/C
Test: NCI In Vivo Anticancer Drug Screen. Data for tumor model L1210 Leukemia (intraperitoneal) in B6D2F1 (BDF1) mice
Settings: endpoint: mean survival time, higher = longer survival
How it was run: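 Mice bearing the transplanted tumor received compound or vehicle. Survival of the treated group was divided by that of the vehicle-treated control group to give the ratio.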

[1] = dose: 100.0 mg/kg/injection, schedule: Q01DX009 (ip), vehicle: saline with Tween-80
[2] = dose: 200.0 mg/kg/injection, schedule: Q01DX009 (ip), vehicle: saline with Tween-80
[3] = dose: 400.0 mg/kg/injection, schedule: Q01DX009 (ip), vehicle: saline with Tween-80
[4] = dose: 100.0 mg/kg/injection, schedule: Q04DX002 (ip), vehicle: Klucel (hydroxypropylcellulose) (HPC)
[5] = dose: 200.0 mg/kg/injection, schedule: Q04DX002 (ip), vehicle: Klucel (hydroxypropylcellulose) (HPC)
[6] = dose: 400.0 mg/kg/injection, schedule: Q04DX002 (ip), vehicle: Klucel (hydroxypropylcellulose) (HPC)
[7] = dose: 100.0 mg/kg/injection, schedule: Q04DX003 (ip), vehicle: saline
[8] = dose: 200.0 mg/kg/injection, schedule: Q04DX003 (ip), vehicle: saline
[9] = dose: 400.0 mg/kg/injection, schedule: Q04DX003 (ip), vehicle: saline
[10] = dose: 200.0 mg/kg/injection, schedule: Q01DX009 (ip), vehicle: Klucel (hydroxypropylcellulose) (HPC)
[11] = dose: 400.0 mg/kg/injection, schedule: Q01DX009 (ip), vehicle: Klucel (hydroxypropylcellulose) (HPC)
[12] = dose: 100.0 mg/kg/injection, schedule: Q04DX003 (ip), vehicle: saline with Tween-80
[13] = dose: 200.0 mg/kg/injection, schedule: Q04DX003 (ip), vehicle: saline with Tween-80
[14] = dose: 400.0 mg/kg/injection, schedule: Q04DX003 (ip), vehicle: saline with Tween-80
[15] = dose: 100.0 mg/kg/injection, schedule: Q01DX009 (ip), vehicle: Klucel (hydroxypropylcellulose) (HPC)

Measured: T/C

Cc1ccc(C)n1-c1ccc(S(=O)(=O)c2ccc(NC(=O)CCC(=O)O)cc2)cc1
inactive: [1] 93 % of control | [2] 88 % of control | [3] 96 % of control

CC(=O)Nc1ccccc1N
inactive: dose: 100.0 mg/kg/injection, schedule: Q01DX009 (ip), vehicle: saline 117 % of control | [4] 92 % of control | dose: 200.0 mg/kg/injection, schedule: Q01DX009 (ip), vehicle: saline 113 % of control | [5] 113 % of control | dose: 265.0 mg/kg/injection, schedule: Q01DX009 (ip), vehicle: saline 114 % of control | [6] 103 % of control

N/N=C(\N)c1ccc(NC(=O)c2ccc(C(=O)Nc3ccc(/C(N)=N/N)cc3)cc2)cc1
inactive: dose: 15.0 mg/kg/injection, schedule: Q01DX Z (ip), vehicle: saline 104 % of control | dose: 30.0 mg/kg/injection, schedule: Q01DX Z (ip), vehicle: saline 100 % of control | dose: 60.0 mg/kg/injection, schedule: Q01DX Z (ip), vehicle: saline 103 % of control | dose: 120.0 mg/kg/injection, schedule: Q01DX Z (ip), vehicle: saline 97 % of control

O=C(O)c1ccc(SSc2ccc(C(=O)O)cn2)nc1
inactive: [7] 102 % of control | [8] 101 % of control | [9] 104 % of control

Cc1oc2c(O)ccc(N=Nc3cccc([N+](=O)[O-])c3)c2c1C
inactive: [10] 93 % of control | [11] 90 % of control

OCC1OC(n2cc(Br)c3c2ncn2ccnc32)C(O)C1O (stereo not drawn)
inactive: dose: 50.0 mg/kg/injection, schedule: Q01DX005 (ip), vehicle: saline 98 % of control | dose: 100.0 mg/kg/injection, schedule: Q01DX005 (ip), vehicle: saline 104 % of control | dose: 200.0 mg/kg/injection, schedule: Q01DX005 (ip), vehicle: saline 104 % of control

Cc1cccc(=O)n1Cc1ccccc1
inactive: dose: 100.0 mg/kg/injection, schedule: Q01DX001 (ip), vehicle: saline 104 % of control | [1] 97 % of control | dose: 200.0 mg/kg/injection, schedule: Q01DX001 (ip), vehicle: saline 98 % of control | [2] 91 % of control | dose: 400.0 mg/kg/injection, schedule: Q01DX001 (ip), vehicle: saline 105 % of control | [3] 88 % of control

O=C(O)/C=C/c1nc2ccccc2nc1-c1ccccc1
inactive: [4] 101 % of control | [5] 113 % of control | [6] 101 % of control

c1ccc(-c2ccno2)cc1
inactive: dose: 6.25 mg/kg/injection, schedule: Q01DX009 (ip), vehicle: saline with Tween-80 98 % of control | dose: 12.5 mg/kg/injection, schedule: Q01DX009 (ip), vehicle: saline with Tween-80 106 % of control | dose: 25.0 mg/kg/injection, schedule: Q01DX009 (ip), vehicle: saline with Tween-80 107 % of control | dose: 75.0 mg/kg/injection, schedule: Q01DX009 (ip), vehicle: saline with Tween-80 90 % of control

CCC(O)C[As](=O)(O)c1cccc(Cl)c1 (stereo not drawn)
inactive: dose: 0.78 mg/kg/injection, schedule: Q04DX002 (ip), vehicle: saline 106 % of control | dose: 0.78 mg/kg/injection, schedule: Q04DX003 (ip), vehicle: saline with Tween-80 92 % of control | dose: 1.56 mg/kg/injection, schedule: Q01DX001 (ip), vehicle: saline 96 % of control | dose: 1.56 mg/kg/injection, schedule: Q04DX002 (ip), vehicle: saline 101 % of control | dose: 1.56 mg/kg/injection, schedule: Q04DX003 (ip), vehicle: saline with Tween-80 94 % of control | dose: 3.13 mg/kg/injection, schedule: Q01DX001 (ip), vehicle: saline 100 % of control | dose: 3.13 mg/kg/injection, schedule: Q04DX002 (ip), vehicle: saline 105 % of control | dose: 3.13 mg/kg/injection, schedule: Q04DX003 (ip), vehicle: saline with Tween-80 95 % of control | dose: 6.25 mg/kg/injection, schedule: Q01DX001 (ip), vehicle: saline with Tween-80 120 % of control | dose: 6.25 mg/kg/injection, schedule: Q01DX001 (ip), vehicle: saline 91 % of control | dose: 6.25 mg/kg/injection, schedule: Q04DX002 (ip), vehicle: saline 97 % of control | dose: 6.25 mg/kg/injection, schedule: Q04DX003 (ip), vehicle: saline with Tween-80 92 % of control

C(=N/N=C/c1cccnc1)/c1cccnc1
inactive: dose: 100.0 mg/kg/injection, schedule: Q01DX001 (ip), vehicle: other 104 % of control | dose: 200.0 mg/kg/injection, schedule: Q01DX001 (ip), vehicle: other 110 % of control | dose: 400.0 mg/kg/injection, schedule: Q01DX001 (ip), vehicle: other 110 % of control

O=c1s[se]c2ccccc12
inactive: dose: 1.56 mg/kg/injection, schedule: Q01DX009 (ip), vehicle: Klucel (hydroxypropylcellulose) (HPC) 100 % of control | dose: 3.12 mg/kg/injection, schedule: Q01DX009 (ip), vehicle: Klucel (hydroxypropylcellulose) (HPC) 100 % of control | dose: 6.25 mg/kg/injection, schedule: Q01DX009 (ip), vehicle: Klucel (hydroxypropylcellulose) (HPC) 107 % of control | dose: 12.5 mg/kg/injection, schedule: Q01DX009 (ip), vehicle: Klucel (hydroxypropylcellulose) (HPC) 111 % of control | dose: 25.0 mg/kg/injection, schedule: Q01DX009 (ip), vehicle: Klucel (hydroxypropylcellulose) (HPC) 102 % of control | dose: 50.0 mg/kg/injection, schedule: Q01DX009 (ip), vehicle: Klucel (hydroxypropylcellulose) (HPC) 91 % of control

CC(=O)N(C)c1ccc(NC2=NCCO2)cc1
inactive: [12] 98 % of control | [13] 101 % of control | [14] 98 % of control

c1ccc(-n2nc3c(c2OCCN2CCCC2)CCCc2ccccc2-3)cc1
inactive: [1] 104 % of control

O=C(OC1CC2CC=CC21)c1ccc([N+](=O)[O-])cc1 (stereo not drawn)
inactive: [12] 96 % of control | [13] 98 % of control | [14] 94 % of control

CC1(C)CCc2cc3c(O)c(-c4ccccc4)c(=O)oc3cc2O1
inactive: [7] 97 % of control | [8] 91 % of control | [9] 91 % of control

Cc1cc(C)c(S(=O)(=O)O)cc1[N+](=O)[O-]
inactive: [15] 96 % of control | [10] 101 % of control | [11] 98 % of control

C=Cc1cc[n+](CCCCC[n+]2ccc(C=C)cc2)cc1
inactive: dose: 100.0 mg/kg/injection, schedule: Q01DX001 (ip), vehicle: carboxymethylcellulose (CMC) 96 % of control | dose: 200.0 mg/kg/injection, schedule: Q01DX001 (ip), vehicle: carboxymethylcellulose (CMC) 98 % of control | dose: 400.0 mg/kg/injection, schedule: Q01DX001 (ip), vehicle: carboxymethylcellulose (CMC) 93 % of control

O=C(O)c1cccc(-c2ccccc2)c1
inactive: dose: 25.0 mg/kg/injection, schedule: Q04DX003 (ip), vehicle: saline with Tween-80 94 % of control | dose: 50.0 mg/kg/injection, schedule: Q04DX003 (ip), vehicle: saline with Tween-80 93 % of control | [12] 104 % of control | [7] 101 % of control | [13] 94 % of control and 100 % of control | [8] 106 % of control | [9] 108 % of control

CCCCCCCCCCCCCCCCCCNC(=O)N(CC)c1ccccc1C
inactive: [15] 101 % of control | dose: 100.0 mg/kg/injection, schedule: Q04DX003 (ip), vehicle: Klucel (hydroxypropylcellulose) (HPC) 93 % of control | [10] 98 % of control | dose: 200.0 mg/kg/injection, schedule: Q04DX003 (ip), vehicle: Klucel (hydroxypropylcellulose) (HPC) 90 % of control | [11] 101 % of control | dose: 400.0 mg/kg/injection, schedule: Q04DX003 (ip), vehicle: Klucel (hydroxypropylcellulose) (HPC) 92 % of control

C=CCN(CC=C)/N=N\c1nc[nH]c1C(=O)OC
inactive: dose: 100.0 mg/kg/injection, schedule: Q01DX001 (ip), vehicle: saline with Tween-80 100 % of control | [1] 109 % of control | [12] 98 % of control | dose: 200.0 mg/kg/injection, schedule: Q01DX001 (ip), vehicle: saline with Tween-80 102 % of control | [2] 95 % of control | [13] 98 % of control | dose: 400.0 mg/kg/injection, schedule: Q01DX001 (ip), vehicle: saline with Tween-80 98 % of control | [3] 93 % of control | [14] 96 % of control
